Experiments:
Type in all cases: in vivo
Erysiphe graminis [1] = experiment: Action against Erysiphe graminis on wheat, protectant foliar spray (test a); details: wheat plants, 200 ppm spray 2 hours before infection (protectant), evaluated after 8 days
Experimental: 1. Action against Erysiphe graminis on wheat. a) After 1 week cultivation, wheat plants are sprayed to run off with a spray mixture (200 ppm active ingredient/20% acetone/0.25% Triton […]). After 2 hours, the treated plants are infected with ascospores shaken from inoculum plants. Fungal attack is evaluated after incubation for 8 days at 22° C. at 50% relative humidity to determine the protection given by the compound.

Erysiphe graminis [2] = experiment: Action against Erysiphe graminis on wheat, curative foliar spray (test b); details: wheat plants, 200 ppm spray 24 hours after infection (curative), evaluated after 8 days
Experimental: 1. Action against Erysiphe graminis on wheat. b) After 1 weeks cultivation, wheat plants are infected with ascospores shaken from inoculum plants. After 24 hours, the wheat plants are sprayed with a spray mixture (200 ppm active ingredient/ 20% acetone/0.25% Triton […]). Fungal attack is evaluated after incubation for 8 days at 22° C. at 50% relative humidity to determine the degree of curative activity provided by the compound.

Erysiphe graminis [3] = experiment: Action against Erysiphe graminis on wheat, curative soil drench, systemic (test c); details: wheat plants, 200 ppm soil drench 24 hours after infection (systemic), evaluated after 8 days
Experimental: 1. Action against Erysiphe graminis on wheat. c) After 1 weeks cultivation, wheat plants are infected with ascospores shaken from inoculum plants. After 24 hours, the soil in which the wheat plants are growing is drenched with the drench mixture (200 ppm active ingredient/20% acetone/0.25% Triton […]). Fungal attack is evaluated after incubation for 8 days at 22° C. at 50% relative humidity to determine the degree of curative activity provided by the compound.

Puccinia recondita [4] = experiment: Action against Puccinia recondita on wheat, protectant foliar spray (test a); details: wheat plants, 200 ppm spray 2 hours before infection (protectant), evaluated after 1 day + 7 days
Experimental: 2. Action against Puccinia recondita on wheat a) After 1 weeks cultivation, wheat plants sprayed to run off with a spray mixture (200 ppm active ingredient/20% acetone/0.25% Triton […]). After 2 hours, the treated plants are infected with a spore. Fungal attack is evaluated after incubation for 1 day at 95-100% relative humidity at 20° C. followed by 7 days at 25° C. at 50% relative humidity to determine the protection given by the compound.

Puccinia recondita [5] = experiment: Action against Puccinia recondita on wheat, curative foliar spray (test b); details: wheat plants, 200 ppm spray 24 hours after infection (curative), evaluated after 1 day + 7 days
Experimental: 2. Action against Puccinia recondita on wheat b) After 1 weeks cultivation, wheat plants are infected with a spore suspension After 24 hours, the infected plants are sprayed to run off with a spray mixture (200 ppm active ingredient/20% acetone/0.25% Triton […]. Fungal attack is evaluated after incubation for 1 day at 95-100% relative humidity at 20° C. followed by 7 days at 25° C. at 50% relative humidity to determine the degree of curative activity provided by the compound.

Puccinia recondita [6] = experiment: Action against Puccinia recondita on wheat, curative soil drench, systemic (test c); details: wheat plants, 200 ppm soil drench 24 hours after infection (systemic), evaluated after 1 day + 7 days
Experimental: 2. Action against Puccinia recondita on wheat c). After 1 weeks cultivation, wheat plants are infected with a spore suspension After 24 hours, the soil in which the wheat plants are growing was drenched with the drench mixture (200 ppm active ingredient/20% acetone/0.25% Triton […]). Fungal attack is evaluated after incubation for 1 day at 95-100% relative humidity at 20° C. followed by 7 days at 25° C. at 50% relative humidity to determine the degree of curative activity provided by the compound.

Measured: control of fungal infection

CO[C@H]1[C@@H](O)[C@H](O)[C@H](OC[C@@]23C[C@@H]4[C@H](C)CC[C@H]4[C@@]4(C=O)CC2C=C(C(C)C)[C@@]34C(=O)O)O[C@@H]1C [sordarin, Sordarin]
100%: all assays above

Reference: patent publication US6436395B1, “Rosellinia subiculata ATCC 74386 and fungus ATCC 74387 for producing sordarin compounds for fungi control” (Merck & Co., Inc., priority 1996, dated 2002)
